Measured values from patent US20230310634A1, “ANTI-HUMAN VISTA ANTIBODIES AND USE THEREOF” (IMMUNEXT, INC., priority 2020, published 2023).
“Also recorded” adds a separate entry of the source.

Assays:
FKBP5 = FKBP5 transcription in peritoneal resident macrophages and spleen monocytes after in vivo treatment; set-up: species or system mice; settings: from other studies (previous example)
Protocol: ADCs were then injected from 17 h to 7 days before mouse euthanasia and cell isolation.
After euthanasia, mice were injected in the peritoneal cavity with 7 ml of PBS/0.5% BSA/2 mM EDTA. After a brief massage of the peritoneum, a small incision was performed and the peritoneal lavage collected. PRM were isolated using negative selection (Miltenyi kit, ref 130-110-434). Spleen were dissected and dissociated mechanically; monocytes were isolated using […] (Stem Cell, EasySep™ Mouse CD11 b Positive Selection Kit II).
Cell pellets from different tissues were resuspended in 0.4 ml RNeasy lysis buffer from RNeasy Plus Mini kit (Qiagen, PN: 74136) and homogenize with 20G needle for 5 times. RNA was isolated following manufacturer's instructions and RNA eluted in […] H2O (RNase/DNase free). RNA concentration was assessed on Nanodrop.
Reverse transcription was done using Taqman reverse transcription reagents (#N8080234) and following manufacturer's instructions. Quantitative Real-Time PCR was done using Taqman master mix 2× kit (#4369016) and Taqman primers for mouse FKBP5 (Mm00487401_m1), and mouse HPRT as housekeeping gene (Mm446968_m1) and run on a QuantStudio3 from Applied Biosystem. […]

[1] = Plasma corticosterone levels after repeated treatment; type: in vivo, mice; settings: bleed on day 5
Protocol: Based on the foregoing we assessed the impact of long-term treatment with an exemplary antibody drug conjugate (ADC) INX201J, and an anti-human VISTA monoclonal antibody linked to a glucocorticoid (GC) payload, on the HPA axis, specifically the corticosterone basal levels. […] The experiment was performed in female mice that were first acclimated for a week to a specific handler that would carry subsequently all injections and bleed to limit stress-induced changes in basal level of GC.
On day 5, mice were bled and their corticosterone levels assessed by ELISA.
The experiment was performed in female hVISTA KI mice. […] A control group was included that received daily PBS injections. On day 5, mice were bled and their plasma corticosterone levels assessed by ELISA.
The ELISA was conducted following the manufacturer's included protocol using Arbor Assays (cat #K014-H5) Corticosterone 5 pack ELISA Kit.

[2] = tested on: peritoneal resident macrophages; assay: In vivo treatment / ex vivo activation of peritoneal resident macrophages (TNFα, IL-6); set-up: species or system mice; settings: Experiment 9, 0.2 mg/Kg of GC payload, day −7, supernatants at 24 h
[3] = tested on: LPS-induced cytokine release; assay: LPS-induced systemic inflammation, plasma cytokines post LPS; set-up: species or system mice; settings: mouse, in vivo
Protocol: In order to evaluate the ADC potential efficacy in auto-immune diseases, we used the short-term model of LPS-induced systemic inflammation. Intraperitoneal (i.p.) injection of lipopolysaccharide (LPS) is widely used as a model for acute immune response—both local and systemic—in mice.
Blood was collected at 2 or 4 h post LPS i.p. injection, and plasma isolated for cytokine analyses.
Mice were dosed at 0.5 mg/Kg.
For ADC-INVIVO-30 and 35, the Immune Monitoring Lab (IML, Shared Resources at Dartmouth-Hitchcock Norris Cotton Cancer Center) performed the analyses.
ELISAs were conducted following the manufacturer's included protocol.
Cytokine data are censored when below a […] threshold for IL-12p40 and/or […] threshold for TNF-α as it indicates a failed LPS injection.

SMILES | pharmacodynamic range (FKBP5) [h] | basal plasma corticosterone levels ([1]; Dex 0.2 mg/Kg daily for 4 days) | basal plasma corticosterone levels ([1]; Dex 2 mg/Kg daily for 4 days) | long term potency in controlling PRM cytokine responses (TNFα, IL-6) [2] | potency of conjugated linker/payload in the short term LPS activation model (conclusions) [3]
C[C@@H]1C[C@H]2[C@@H]3CCC4=CC(=O)C=C[C@]4(C)[C@@]3(F)[C@@H](O)C[C@]2(C)[C@@]1(O)C(=O)CO [Dex, Dexamethasone] | < 24 | limited though significant impact | dramatically decreased |  | 
C[C@]12C=CC(=O)C=C1CC[C@@H]1[C@@H]2[C@@H](O)C[C@@]2(C)[C@H]1C[C@H]1O[C@@H](C34CC(Cc5cccc(NC(=O)[C@H](CCC(=O)O)NC(=O)CNC(=O)CBr)c5)(C3)C4)O[C@]12C(=O)CO [INX O, (S)-4-(2-(2-bromoacetamido)acetamido)-5-((3-((3-((6aR,6bS,7S,8aS,8bS,10R,11aR,12aS,12bS)-7-hydroxy-8b-(2-hydroxyacetyl)-6a,8a-dimethyl-4-oxo-2,4,6a,6b,7,8,8a,8b,11a,12,12a,12b-dodecahydro-1H-naphtho[2′,1′:4,5]indeno[1,2-d][1,3]dioxol-10-yl)bicyclo[1.1.1]pentan-1-yl)methyl)phenyl)amino)-5-oxopentanoic acid] |  |  |  | little and non-significant impact; also recorded: very limited potency | reduced potency
C[C@]12C=CC(=O)C=C1CC[C@@H]1[C@@H]2[C@@H](O)C[C@@]2(C)[C@H]1C[C@H]1O[C@@H](c3ccc(CC45CC(NC(=O)[C@H](CCCCN)NC(=O)CNC(=O)CBr)(C4)C5)cc3)O[C@]12C(=O)CO [INX W, (S)-6-amino-2-(2-(2-bromoacetamido)acetamido)-N-(3-(4-((6aR,6bS,7S,8aS,8bS,10R,11aR,12aS,12bS)-7-hydroxy-8b-(2-hydroxyacetyl)-6a,8a-dimethyl-4-oxo-2,4,6a,6b,7,8,8a,8b,11a,12,12a,12b-dodecahydro-1H-naphtho[2′,1′:4,5]indeno[1,2-d][1,3]dioxol-10-yl)benzyl)bicycle [1.1.1]pentan-1-yl)hexanamide] |  |  |  | remarkable long term potency; also recorded: increased potency relative to INX P and INX R | efficacious
